Results published in patent publication US11015179B2, “Peptide having anti-viral effect and composition containing same” (priority 2015, dated 2021).

Legend:
HBV [1] = assay: HBsAg ELISA in whole HBV W4P genome-transfected HepG2 cell line; format: cell-based, hepatitis B virus; details: 48 hours
HBV [2] = assay: Virion production (real-time PCR of HBV DNA) in W4P-transfected HepG2 cell line; format: cell-based, hepatitis B virus
Method: (§1) To observe the potential for virion proliferation of whole HBV containing W4P, virion DNA was extracted from the entire supernatant while the medium was changed every 24 hours by the above-described method, and subjected to real-time quantitative PCR using a Quantitech SYBR Green Master-Mix kit (Qiagen). The entire supernatant was centrifuged using an ultracentrifuge equipped with an SW28 swing rotor at 20,000 rpm for 2 hours to precipitate the virus, and the precipitated viral pellets were suspended with 200 μl of sterilized DW. […] Real-time PCR was performed at 40 cycles of 5 min at 95° C., 15 sec at 94° C., and 15 sec at 60° C. using the Exicycler™ 96 Real-Time Quantitative Thermal Block System (Bioneer Co., Korea), and the temperature was increased from 53° C. to 90° C. by modulating to 0 sec at 95° C., 30 sec at 53° C. and modulating by 0.1° C. per second to analyze a melting curve.
To observe the virion production in the supernatant after the inhibition of HBsAg secretion by the PEP1 peptide was observed, virions were collected from the supernatant obtained by the above-described method using PEG 6000, and HBV DNA was obtained using a virus DNA prep kit (Intron, Korea), and then quantified by real-time PCR. […]

HBV [3] = assay: Virion production (real-time PCR of HBV DNA) in W4P-transfected Huh7 cell line; format: cell-based, hepatitis B virus; details: Huh7, 10 μM, 48 hours
Method: as §1
To observe the virion production in the supernatant after the inhibition of HBsAg secretion by the PEP1 peptide was observed, virions were collected from the supernatant obtained by the above-described method using PEG 6000, and HBV DNA was obtained using a virus DNA prep kit (Intron, Korea), and then quantified by real-time PCR.

IL-6 = IL-6 ELISA in culture supernatant of W4P-transfected Huh7 cell line; format: cell-based, human; details: Huh7, 10 μM, 48 hours
Method: It has been reported that HBV preS1 W4P variants are closely related to production of IL-6, which is an inflammation regulatory cytokine. Therefore, to observe an anti-inflammatory effect of PEP1 in IL-6-induced cell lines, 48 hours after the whole HBV W4P genome was injected into HepG2 and Huh7 cell lines which were then treated with 10 μM PEP1 and 10 μM 3TC, respectively, IL-6 levels in the culture supernatants were observed through ELISA.

HBV [4] = format: in vivo, mice; details: caudal vein twice a week; PEP1 50 μg/kg, 3TC 500 μg/kg
Method: HBV transgenic mice were prepared by injecting a 1.1-fold HBV base sequence comprising a full open reading frame (ORF) into the fertilized eggs of the mice through microinjection. The base sequence of HBV used in the research was obtained using a pHY92-W4P plasmid. The pHY92-W4P plasmid was digested with EcoRi before injection into the fertilized eggs of the mice, and finally a base sequence of 3.9 kb in length was used for microinjection. Produced subjects were selected through PCR using a specific sequence of HBsAg. PCR-positive subjects were selected according to the concentrations of serum HBsAg and HBeAg, and finally used as PCR-positive, HBsAg-positive, and HBeAg-positive mice in the study. These mice were backcrossed with C57BL/6 mice to produce heterologous HBV transgenic mice.
HBsAg levels in the HBV-transgenic mice were determined using an HBsAg ELISA kit (BIOKIT, Germany). To quantify HBV titers, total DNA was extracted and confirmed by real-time PCR.
In addition, HBV virion DNA was obtained from mouse serum and subjected to real-time PCR.

HSP 90, SOD, ERK, JAK2 = assay: Liver protein expression (western blotting) in whole HBV W4P genome-transgenic mice; format: in vivo; details: week 8; PEP1 50 μg/kg, 3TC 500 μg/kg
Method: To observe a change in protein expression affecting the antiviral effect by the PEP1 peptide, transgenic mice prepared by injecting the whole HBV W4P variant genome were used. The PEP1 peptide was injected into the caudal vein of the mouse at a concentration of 50 μg/kg twice a week. As a control group, 500 μg/kg of 3TC was injected like the PEP1 peptide. On week 8, the whole blood was collected from the mouse, and proteins were extracted from the liver of the mouse and subjected to western blotting to observe expression of the proteins.

immune cells = assay: Distribution of immune cells (FACS) in whole HBV W4P genome-transgenic mice; format: in vivo; details: 3TC
Method: PEP1 is an HLA Class II-binding peptide derived from telomerase, and a 16-amino acid peptide triggering cytotoxic T-cell and helper T-cell immune responses. Therefore, to observe a change in the distribution of renal immune cells by the PEP1 peptide, transgenic mice were prepared by injecting the whole HBV W4P variant genome, on week 4, the whole blood was collected from the mice, and immune cells were isolated from the kidneys of the mice and then stained with lymphocyte markers (B cells (CD19B), CD4, CD8, NK1.1 cells) and myeloid cell markers (DC (CD11c), a macrophage marker (F4/80), a neutrophil marker (Ly-6G), a monocyte marker (Gr1)) according to an extracellular cell surface staining method for FACS analysis.

INFγ = INFγ activity of immune cells (FACS) in whole HBV W4P genome-transgenic mice; format: in vivo; details: 8 weeks; PEP1 50 μg/kg, 3TC 500 μg/kg; HBsAg stimulation 72 hours
Method: INF, which is a hormone-like cytokine, is secreted from immune cells against a virus. INFs are present in three types such as α, β and γ, and among these, INFγ is known to be critical for inhibiting the hepatitis B virus (HBV) in humans. Therefore, to observe the activity of INFγ, as an immune response, by the PEP1 peptide, 8 weeks after 50 μg/kg of the PEP1 peptide and 500 μg/kg of 3TC were injected into the caudal vein of each of transgenic mice prepared by injection of the whole HBV W4P variant genome twice a week, the whole blood was collected and a kidney was extracted from the mouse, and then immune cells were isolated and treated with HBsAg for stimulation. Seventy two hours after the stimulation, the INFγ cytokine was accumulated in cells by Brefeldin A and stained by an intracellular staining method for FACS analysis.

macrophages = assay: Differentiation of macrophages (FACS) in whole HBV W4P genome-transgenic mice; format: in vivo; details: eight weeks; PEP1 50 μg/kg, 3TC 500 μg/kg; vs PBS
Method: Therefore, to observe if the PEP1 peptide is able to differentiate macrophages to M1, eight weeks after PBS, 50 μg/kg of the PEP1 peptide and 500 μg/kg of 3TC were injected into the caudal vein of each of transgenic mice prepared by injecting the whole HBV W4P variant genome twice a week, the whole blood was collected from the mouse and a kidney of the mouse was extracted, immune cells were isolated and stained with a macrophage marker (F4/80) and M1 marker MHCII through an extracellular cell surface staining method. Afterward, FACS analysis was carried out.

HBV [5] = assay: Antiviral effect with HSP90 blockage in whole HBV wild-type genome-transfected HepG2 cell line (real-time quantitative PCR); format: cell-based, hepatitis B virus; details: HepG2, ETV 30 nM, 24 hours
Method: PEP1 has been known to pass through a cell membrane from the outside to the inside of the cells in a shuttle method via HSP90. To confirm if the antiviral effect is reduced in cells by blocking the HSP90 activity based on such a mechanism, in this research, a HepG2 cell line was transiently transfected with the whole HBV wild-type genome, treated with anti-GAPDH, anti-HSP (1 ug/ml, blockage of HSP90 activity) and 17-AAG (1 μM) for 1 hour, ant then with PBS (0.5%), entecavir (ETV, 30 nM) and PEP1 (5 μM) for 24 hours. Subsequently, the supernatant was collected and treated with PEG6000 to precipitate the virus, and viral DNA was extracted and subjected to real-time quantitative PCR to observe an antiviral effect. All experiments are independently performed in triplicate, and a statistical significance test was performed using one-way ANOVA through the Tukey's Multiple Comparison Test. ** p<0.05 versus PBS, and ## p<0.05 versus None.

Question: Which “HBsAg inhibitory effect vs control group” value (HBV [1]; 3TC 10 μM, cell line not specified (Huh7, Huh7.5, HepG2 tested)) does the source give for `Nc1ccn([C@@H]2CS[C@H](CO)O2)c(=O)n1` [3TC, ramivudine] here?
Answer: exhibited higher inhibitory effects than the control group

Question: What about the “HBsAg in both pellets and supernatants” value (HBV [1]; HepG2, 3TC 0.01-100 μM) of the same compound?
Answer: showed inhibitory effects according to concentration

Question: What about the “Virions produced in the supernatant” value (HBV [2]; HepG2, 10 μM, 48 hours) of the same compound?
Answer: inhibitory effect

Question: What about the “Virion synthesis according to concentration” value (HBV [2]; HepG2, 3TC) of the same compound?
Answer: has an inhibitory effect on virion synthesis according to concentration

Question: What about the “Virions produced in the supernatant” value (HBV [3]) of the same compound?
Answer: inhibitory effect

Question: What about the “IL-6 level in culture supernatant” value (IL-6) of the same compound?
Answer: no effect on production of IL-6 cytokine

Question: What about the “Level of HBsAg in serum, reduction effect on week 8” value (HBV [4]) of the same compound?
Answer: no such effect

Question: What about the “Level of HBsAg in serum, up to 4 weeks” value (HBV [4]) of the same compound?
Answer: neither the PEP1 peptide nor 3TC showed a reduction effect

Question: What about the “Serum virion level, inhibitory effect on week 8” value (HBV [4]) of the same compound?
Answer: approximately 52%

Question: What about the “Serum virion level, week 4” value (HBV [4]) of the same compound?
Answer: did not show virion inhibitory effects

Question: What about the “JAK2 phosphorylation in liver” value (HSP 90, SOD, ERK, JAK2) of the same compound?
Answer: inhibited phosphorylation

Question: What about the “Protein phosphorylation of ERK in liver” value (HSP 90, SOD, ERK, JAK2) of the same compound?
Answer: inhibited phosphorylation

Question: And the “Distribution of immune cells” value (immune cells)?
Answer: did not have an influence on the distribution of immune cells

Question: And the “INFγ activity of CD4, CD8 and NK1.1 cells” value (INFγ)?
Answer: slightly increased activity

Question: And the “Distribution of macrophages among myeloid-derived cells” value (macrophages)?
Answer: did not show a difference

Question: And the “Number of cells differentiated to M1” value (macrophages)?
Answer: did not show a difference

Question: How did the “Antiviral effect in untreated cells or cells treated with GAPDH, HSP90 or 17-AAG” value (HBV [5]) turn out when `C=C1[C@H](CO)[C@@H](O)C[C@@H]1n1cnc2c(=O)[nH]c(N)nc21` [ETV, entecavir] was run?
Answer: no difference in the antiviral effect
